#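 Tested at 5 concentrations; 48 h exposure; 96-well plates; endpoints linearly interpolated, else capped at highest concentration. The concentration for 50% growth inhibition is given as GI50.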 Active and inactive are the calls of the source. Rule as the data show it: active = GI50 up to about 1.1 µM and inactive = higher.
# Experiments:
# Experiment in all cases: growth of human tumour cells (NCI), 48 h
# PC-3 = test system: PC-3
# SK-MEL-2 = test system: SK-MEL-2
# M14 = test system: M14
# DU-145 = test system: DU-145
# OVCAR-3 = test system: OVCAR-3
# OVCAR-8 = test system: OVCAR-8
# SN12C = test system: SN12C
# HCT-15 = test system: HCT-15
# ACHN = test system: ACHN
# HOP-62 = test system: HOP-62
# OVCAR-4 = test system: OVCAR-4
# UACC-62 = test system: UACC-62
# OVCAR-5 = test system: OVCAR-5
# Malme-3M = test system: Malme-3M
# EKVX = test system: EKVX
# NCI-H522 = test system: NCI-H522
# MCF7 = test system: MCF7
# UACC-257 = test system: UACC-257
# SF-295 = test system: SF-295
# SNB-75 = test system: SNB-75
# MDA-N = test system: MDA-N
# KM12 = test system: KM12
# HT-29 = test system: HT-29
# HCT-116 = test system: HCT-116
# HOP-92 = test system: HOP-92
# NCI/ADR-RES = test system: NCI/ADR-RES
# COLO 205 = test system: COLO 205
# HL-60 = test system: HL-60
# Hs-578T = test system: Hs-578T
# BT-549 = test system: BT-549
# 786-0 = test system: 786-0
# UO-31 = test system: UO-31
# SK-MEL-28 = test system: SK-MEL-28
# T47D = test system: T47D
# IGROV-1 = test system: IGROV-1
# MDA-MB-435 = test system: MDA-MB-435
# SR = test system: SR
# HCC 2998 = test system: HCC 2998
# SF-539 = test system: SF-539
# SF-268 = test system: SF-268
# RXF 393 = test system: RXF 393
# CAKI-1 = test system: CAKI-1
# SK-MEL-5 = test system: SK-MEL-5
# U-251 = test system: U-251
# TK-10 = test system: TK-10
# NCI-H226 = test system: NCI-H226
# A549 = test system: A549
# CCRF-CEM = test system: CCRF-CEM
# A498 = test system: A498
# SNB-19 = test system: SNB-19
# SW-620 = test system: SW-620
# LOX IMVI = test system: LOX IMVI
# RPMI-8226 = test system: RPMI-8226
# NCI-H460 = test system: NCI-H460
# K562 = test system: K562
# MOLT-4 = test system: MOLT-4
# NCI-H23 = test system: NCI-H23
smiles,measurement,setting,value
COC(=O)c1ccccc1/C=C1\Cc2cc(C)c(C)cc2C1=O,GI50,PC-3,> 100 µM (inactive)
same,GI50,SK-MEL-2,14 µM (inactive)
same,GI50,M14,> 100 µM (inactive)
same,GI50,DU-145,> 100 µM (inactive)
same,GI50,OVCAR-3,> 100 µM (inactive)
same,GI50,OVCAR-8,55.7 µM (inactive)
same,GI50,SN12C,> 100 µM (inactive)
same,GI50,HCT-15,> 100 µM
same,GI50,ACHN,> 100 µM (inactive)
same,GI50,HOP-62,30.4 µM (inactive)
same,GI50,OVCAR-4,> 100 µM (inactive)
same,GI50,UACC-62,> 100 µM (inactive)
same,GI50,OVCAR-5,> 100 µM (inactive)
same,GI50,Malme-3M,> 100 µM (inactive)
same,GI50,EKVX,> 100 µM (inactive)
same,GI50,NCI-H522,73.8 µM (inactive)
same,GI50,MCF7,> 100 µM (inactive)
same,GI50,UACC-257,> 100 µM (inactive)
same,GI50,SF-295,49.3 µM (inactive)
same,GI50,SNB-75,26.5 µM (inactive)
same,GI50,MDA-N,> 100 µM (inactive)
same,GI50,KM12,> 100 µM (inactive)
same,GI50,HT-29,> 100 µM (inactive)
same,GI50,HCT-116,> 100 µM (inactive)
same,GI50,HOP-92,21.2 µM (inactive)
same,GI50,NCI/ADR-RES,> 100 µM (inactive)
same,GI50,COLO 205,> 100 µM (inactive)
same,GI50,HL-60,> 100 µM (inactive)
same,GI50,Hs-578T,40.7 µM (inactive)
same,GI50,BT-549,34.5 µM (inactive)
same,GI50,786-0,54.8 µM (inactive)
same,GI50,UO-31,84.1 µM (inactive)
same,GI50,SK-MEL-28,> 100 µM (inactive)
same,GI50,T47D,> 100 µM (inactive)
same,GI50,IGROV-1,> 100 µM (inactive)
same,GI50,MDA-MB-435,> 100 µM (inactive)
same,GI50,SR,> 100 µM (inactive)
same,GI50,HCC 2998,> 100 µM (inactive)
same,GI50,SF-539,> 100 µM (inactive)
same,GI50,SF-268,40.3 µM (inactive)
same,GI50,RXF 393,89.1 µM (inactive)
same,GI50,CAKI-1,> 100 µM (inactive)
same,GI50,SK-MEL-5,> 100 µM (inactive)
same,GI50,U-251,27.1 µM (inactive)
same,GI50,TK-10,36.9 µM (inactive)
same,GI50,NCI-H226,49 µM (inactive)
same,GI50,A549,> 100 µM (inactive)
same,GI50,CCRF-CEM,> 100 µM (inactive)
same,GI50,A498,73.3 µM (inactive)
same,GI50,SNB-19,33.4 µM (inactive)
same,GI50,SW-620,> 100 µM (inactive)
same,GI50,LOX IMVI,> 100 µM (inactive)
same,GI50,RPMI-8226,> 100 µM (inactive)
same,GI50,NCI-H460,> 100 µM (inactive)
same,GI50,K562,> 100 µM (inactive)
same,GI50,MOLT-4,> 100 µM (inactive)
COc1cc(/C=N/Nc2nnc3c4ccccc4c4ncccc4c3n2)cc(OC)c1OC,GI50,NCI-H23,2.57 µM (inactive)
same,GI50,M14,8.51 µM (inactive)
same,GI50,DU-145,3.31 µM (inactive)
same,GI50,OVCAR-3,3.53 µM (inactive)
same,GI50,OVCAR-8,2.23 µM (inactive)
same,GI50,ACHN,5.85 µM (inactive)
same,GI50,OVCAR-4,6.46 µM (inactive)
same,GI50,OVCAR-5,5.13 µM (inactive)
same,GI50,EKVX,9.82 µM (inactive)
same,GI50,NCI-H522,2.47 µM (inactive)
same,GI50,UACC-257,1.97 µM (inactive)
same,GI50,SF-295,3.49 µM (inactive)
same,GI50,SNB-75,3.82 µM (inactive)
same,GI50,MDA-N,1.61 µM (inactive)
same,GI50,KM12,9.29 µM (inactive)
same,GI50,HT-29,2.02 µM (inactive)
same,GI50,HL-60,3.62 µM (inactive)
same,GI50,Hs-578T,4.74 µM (inactive)
same,GI50,BT-549,6.22 µM (inactive)
same,GI50,786-0,5.83 µM (inactive)
same,GI50,UO-31,3.39 µM (inactive)
same,GI50,T47D,1.21 µM (inactive)
same,GI50,IGROV-1,1.04 µM (active)
same,GI50,MDA-MB-435,5.12 µM (inactive)
same,GI50,SR,3.37 µM (inactive)
same,GI50,SF-539,3.71 µM (inactive)
same,GI50,SF-268,6.58 µM (inactive)
same,GI50,RXF 393,4.72 µM (inactive)
same,GI50,SK-MEL-5,4.31 µM (inactive)
same,GI50,U-251,4.21 µM (inactive)
same,GI50,TK-10,4.28 µM (inactive)
same,GI50,NCI-H226,3.01 µM (inactive)
same,GI50,A549,2.79 µM (inactive)
same,GI50,CCRF-CEM,2.63 µM (inactive)
same,GI50,SNB-19,6.71 µM (inactive)
same,GI50,NCI-H460,0.728 µM (active)
same,GI50,K562,3.17 µM (inactive)
same,GI50,MOLT-4,2.9 µM (inactive)

# From ChEMBL document CHEMBL1201862, “PubChem BioAssay data set” (2004)
